One assay deals with T1, HDAC7 (Homo sapiens, UniProt Q8WUI4).
T1 sequence (Q8WUI4 1-952): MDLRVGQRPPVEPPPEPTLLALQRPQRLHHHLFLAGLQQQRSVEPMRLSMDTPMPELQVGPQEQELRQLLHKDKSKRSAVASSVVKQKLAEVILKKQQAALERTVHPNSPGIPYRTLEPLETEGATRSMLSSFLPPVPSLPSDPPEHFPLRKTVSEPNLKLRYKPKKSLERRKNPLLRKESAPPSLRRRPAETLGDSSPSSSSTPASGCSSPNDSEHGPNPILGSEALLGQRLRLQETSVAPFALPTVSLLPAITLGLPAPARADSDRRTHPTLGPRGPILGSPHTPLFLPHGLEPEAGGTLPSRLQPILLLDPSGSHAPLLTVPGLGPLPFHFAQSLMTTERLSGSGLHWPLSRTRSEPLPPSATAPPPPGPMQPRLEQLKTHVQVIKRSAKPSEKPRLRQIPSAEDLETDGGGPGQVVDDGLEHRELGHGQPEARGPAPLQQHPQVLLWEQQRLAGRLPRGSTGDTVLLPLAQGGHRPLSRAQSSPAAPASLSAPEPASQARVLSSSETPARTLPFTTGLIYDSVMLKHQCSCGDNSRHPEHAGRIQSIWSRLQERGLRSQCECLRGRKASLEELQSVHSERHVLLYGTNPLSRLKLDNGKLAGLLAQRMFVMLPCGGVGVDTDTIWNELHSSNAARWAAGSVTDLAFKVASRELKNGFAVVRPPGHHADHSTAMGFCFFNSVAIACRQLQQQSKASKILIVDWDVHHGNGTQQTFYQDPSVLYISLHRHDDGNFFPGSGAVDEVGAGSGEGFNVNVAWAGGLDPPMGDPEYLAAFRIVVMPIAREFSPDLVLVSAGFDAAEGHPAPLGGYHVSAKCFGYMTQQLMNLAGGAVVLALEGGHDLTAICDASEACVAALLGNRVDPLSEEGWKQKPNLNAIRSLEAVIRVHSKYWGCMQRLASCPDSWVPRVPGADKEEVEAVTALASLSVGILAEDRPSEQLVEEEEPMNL
In words: HDAC biochemical activity measurement (fluorescent substrate deacetylation).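 Note: fluorogenic deacetylation assay using acetyl-lysine substrate at 20 µM, enzyme and compound incubated 30 min at 37 °C, then developer added, fluorescence read at 360/460 nm.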 Particulars: HDAC7; 37° C. 30 minutes.

For assay [1], the system named is A549 (human lung cancer cells). Description: MTT cancer cell growth inhibition. Format: cell-based. Particulars: Homo sapiens, A549, 72 h, MTT, 72 hours incubation; read-out: GI50 A54. In short, it runs like this: (§1)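 Seed 1500 cells/well, incubate overnight. Add compound, 10^−5 to 10^−10 M final, n=3; culture 72 h, 37° C., 5% CO2. Add MTT, 4 h. Discard supernatant, dissolve in DMSO. Read 570 nm; calculate viability and GI50.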

In assay [2] the test system is BGC-823 (human gastric cancer cells). In words: MTT cancer cell growth inhibition. The following applies: Homo sapiens, BGC-823, 72 h, MTT, 72 hours incubation; read-out: GI50 BG. Format: cell-based. In short, it runs like this: as §1
Assay [3] deals with Bel-7402 (human hepatoma cells). Description: MTT cancer cell growth inhibition. The class given is cell-based. The following applies: Homo sapiens, Bel-7402, 72 h, MTT, 72 hours incubation, Bel-7402 cells; read-out: GI50 Bel-7402. Summed up:
as §1

For assay [4], the system named is DU145 (human prostate cancer cells). In words: MTT cancer cell growth inhibition. Format: cell-based. The following applies: Homo sapiens, DU-145, 72 h, MTT, 72 hours incubation; read-out: GI50 Du1. In short, it runs like this: as §1
Assay [5] concerns H1975 (non-small cell lung adenocarcinoma). In words: MTT cancer cell growth inhibition. Format: cell-based. Particulars: Homo sapiens, NCI-H1975, 72 h, MTT, 72 hours incubation, H1975 cells; read-out: GI50 H1975. Summed up: as §1
In assay [6] the test system is HCC827 (human non-small cell lung cancer cells). In words: MTT cancer cell growth inhibition. The following applies: Homo sapiens, HCC827, 72 h, MTT, 72 hours incubation, HCC827 cells; read-out: GI50 HCC827. The class given is cell-based. Summed up:
as §1

The test system of assay [7] is HT1080 (human fibrosarcoma cells). Description: MTT cancer cell growth inhibition. Format: cell-based. Particulars: Homo sapiens, HT-1080, 72 h, MTT, 72 hours incubation; read-out: GI50 HT1. In short, it runs like this: as §1
Assay [8] has as its system Hela (human cervical cancer cells). Description: MTT cancer cell growth inhibition. Format: cell-based. The following applies: Homo sapiens, HeLa, 72 h, MTT, 72 hours incubation; read-out: GI50 Hela. Summed up:
as §1

Assay [9] relates to Huh-7 (human hepatoma cells). In words: MTT cancer cell growth inhibition. The class given is cell-based. Particulars: Homo sapiens, Huh-7, 72 h, MTT, 72 hours incubation, Huh-7 cells; read-out: GI50 Huh-7. In short, it runs like this: as §1
Assay [10] concerns K562 (human leukemia cells). In words: MTT cancer cell growth inhibition. Format: cell-based. The following applies: Homo sapiens, K562, 72 h, MTT, 72 hours incubation, K562 cells; read-out: GI50 K562. Summed up:
as §1

The subject of assay [11] is KBM-5 (human chronic myelogenous leukemia). In words: MTT cancer cell growth inhibition. Format: cell-based. Particulars: Homo sapiens, KBM5, 72 h, MTT, 72 hours incubation, KBM-5 cells; read-out: GI50 KBM-5. In short, it runs like this:
as §1

Assay [12] concerns KBM5-T315I (human chronic myelogenous leukemia). In words: MTT cancer cell growth inhibition. The class given is cell-based. Particulars: Homo sapiens, 72 h, MTT, 72 hours incubation, KBM5-T315I cells; read-out: GI50 KBM5-T315I. In short, it runs like this: as §1
Assay [13] concerns MCF-7 (human breast cancer cells). Description: MTT cancer cell growth inhibition. The class given is cell-based. Particulars: Homo sapiens, MCF7, 72 h, 72 hours incubation, read-out: GI50 MCF. In short, it runs like this:
as §1

Assay [14] concerns MDA-MB-231 (breast cancer cells). Description: MTT cancer cell growth inhibition. The class given is cell-based. Particulars: Homo sapiens, MDA-MB-231, 72 h, read-out: GI50 MDA-MB-231, MTT, 72 hours incubation, MDA-MB-231 cells. In short, it runs like this:
as §1

The test system of assay [15] is MOLT-4 (human acute lymphoblastic leukemia cells). Description: MTT cancer cell growth inhibition. The class given is cell-based. Particulars: Homo sapiens, MOLT-4, 72 h, MTT, 72 hours incubation; read-out: GI50 Mol. In short, it runs like this: as §1
In assay [16] the test system is N-87 (human gastric cancer cells). Description: MTT cancer cell growth inhibition. Format: cell-based. The following applies: Homo sapiens, 72 h, MTT, 72 hours incubation, N-87 cells; read-out: GI50 N-87. In short, it runs like this:
as §1

For assay [17], the system named is PANC-1 (Pac-1, human pancreatic cancer cells). In words: MTT cancer cell growth inhibition. Format: cell-based. Particulars: Homo sapiens, PANC-1, 72 h, MTT, 72 hours incubation; read-out: GI50 PAN. Summed up:
as §1

Assay [18] relates to SGC-7901 (human gastric cancer cells). Description: MTT cancer cell growth inhibition. The class given is cell-based. Particulars: Homo sapiens, SGC-7901, 72 h, MTT, 72 hours incubation, SGC-7901 cells; read-out: GI50 SGC-7901. Summed up:
as §1

Assay [19] concerns U937 (human leukemia cells). Description: MTT cancer cell growth inhibition. The class given is cell-based. Particulars: Homo sapiens, U-937, 72 h, MTT, 72 hours incubation; read-out: GI50 U93. In short, it runs like this: as §1
Assay [20] concerns lncap (prostate cancer cells). Description: MTT cancer cell growth inhibition. Format: cell-based. Particulars: Homo sapiens, LNCaP, 72 h, MTT, 72 hours incubation; read-out: GI50 lnca. In short, it runs like this:
as §1

Description for HDAC7: The chemical activity of the compound is determined according to the degree of deacetylation inhibition of the HDAC enzyme. This experiment measured the degree of deacetylation related to tumor proliferation and metastasis of HDAC1, HDAC2, HDAC3, HDAC8, HDAC11 five subtypes HDAC enzymes. After the substrate containing an acetylated lysine side chain and HDAC enzyme are labeled with a fluorescent label, the fluorescent substrate is de acetyl. The fluorescent labeled substrate is cleaved by the enzyme, and the fluorescent substance is released, which generates 460 nm emission light under the excitation of 360 nm light.
HDAC substrate was diluted with reaction buffer to 200M (reaction concentration of 20M), the HDAC enzyme was diluted to the appropriate concentration, then added different concentrations of the test compounds and acted at 37° C. 30 minutes, and then added the same volume of 2-times concentration substrate developing solution (developer), incubated at room temperature for 15 minutes. Finally, the last reading measured with a microplate plate reader, excitation light was 360 nm, the emitted light was 460 nm, data processing software was Prime 4, and the results are shown in Table 1.

Take `CC(C)=C1NC(=O)c2cccc(n2)CNC(=O)C[C@@H](/C=C/CCS)OC(=O)[C@H](C(C)C)NC1=O` [Compound 135]: the “IC50 HDAC7” value on HDAC7 is “no activity”. Also, the GI50 turned out to be 90 nM in [1]; 50 nM in [2]; 39 nM in assay [3]; 50 nM in assay [4]; 79 nM in assay [5]; 93 nM in assay [6]. Besides, the GI50 in assay [7] is 90 nM; in assay [8], 70 nM; in assay [9] it was 87 nM; in assay [10], 33 nM; in assay [11] it was 11 nM; in [12], 51 nM. Moreover, the concentration for 50% growth inhibition (GI50) came to 50 nM in assay [13]; 41 nM in assay [14]; 90 nM in assay [15]; 26 nM in [16]; 50 nM in assay [17]; 44 nM in assay [18]. Further, the GI50 stood at 90 nM in [19] and 70 nM in assay [20].
For `C/C=C1\NC(=O)c2ccc(F)c(n2)CNC(=O)C[C@@H](/C=C/CCSC(=O)CCCCCC)OC(=O)[C@H](C(C)C)NC1=O` [Example 35], the “IC50 HDAC7” value against HDAC7 is “no activity”. In addition, the GI50 in assay [1] amounted to 60 nM; in assay [2], 60 nM; in assay [3], 51 nM; in assay [4] it was 20 nM; in [5], 38 nM; in [6], 51 nM. Moreover, the GI50 in [7] was 50 nM; in [8], 70 nM; in assay [9], 46 nM; in [10], 26 nM; in assay [11] it was 75 nM; in [12], 59 nM. For the same molecule, the GI50 is 50 nM in assay [13]; 46 nM in assay [14]; 40 nM in [15]; 63 nM in [16]; 50 nM in assay [17]; 61 nM in assay [18]. The GI50 in [19] was 30 nM; in assay [20], 40 nM.
As to `C/C=C1\NC(=O)c2nc(ccc2F)CNC(=O)C[C@@H](/C=C/CCS)OC(=O)[C@H](CCCCNC(=O)OCC2c3ccccc3-c3ccccc32)NC1=O` [Compound 120], the “IC50 HDAC7” value against HDAC7 is given as “no activity”. Moreover, the concentration for 50% growth inhibition (GI50) in assay [1] was 50 nM; in assay [2] it was 30 nM; in assay [3] it was 66 nM; in [4] it was 50 nM; in assay [5], 35 nM; in assay [6], 55 nM. For the same molecule, the GI50 came out at 10 nM in [7]; 30 nM in assay [8]; 71 nM in [9]; 23 nM in assay [10]; 45 nM in assay [11]; 33 nM in assay [12]. The GI50 was found to be 100 nM in [13]; 16 nM in assay [14]; 20 nM in assay [15]; 53 nM in assay [16]; 100 nM in assay [17]; 84 nM in [18]. The GI50 was found to be 10 nM in [19] and 30 nM in assay [20].
On to `C=C1NC(=O)c2cccc(n2)CNC(=O)C[C@@H](/C=C/CCS)OC(=O)[C@H](C(C)C)NC1=O` [Compound 131], for which the “IC50 HDAC7” value at HDAC7 is “no activity”. The 50% growth inhibitory concentration (GI50) was 50 nM in assay [1]; 40 nM in assay [2]; 43 nM in assay [3]; 60 nM in assay [4]; 16 nM in [5]; 59 nM in [6]. For the same molecule, the GI50 in [7] came out at 80 nM; in [8] it was 80 nM; in assay [9] it was 23 nM; in [10] it was 45 nM; in assay [11], 63 nM; in [12], 45 nM. In addition, the GI50 in assay [13] was determined as 60 nM; in assay [14] it was 46 nM; in assay [15], 80 nM; in assay [16], 95 nM; in assay [17], 40 nM; in assay [18], 31 nM. Also, the GI50 in [19] turned out to be 50 nM; in assay [20] it was 80 nM.

By GI50 is commonly meant the concentration at which growth is held to half of that of the control.

Values taken from patent US10065990B2, “Cyclic peptide compound, and preparation method, pharmaceutical composition and use thereof” (HANGZHOU GUANYU BIO-MEDICAL CO., LTD, priority 2013, dated 2018).
